The target of data set [1] is T1, human estrogen receptor α (hERα) (Homo sapiens, UniProt P03372).
T1 sequence (P03372 1-595): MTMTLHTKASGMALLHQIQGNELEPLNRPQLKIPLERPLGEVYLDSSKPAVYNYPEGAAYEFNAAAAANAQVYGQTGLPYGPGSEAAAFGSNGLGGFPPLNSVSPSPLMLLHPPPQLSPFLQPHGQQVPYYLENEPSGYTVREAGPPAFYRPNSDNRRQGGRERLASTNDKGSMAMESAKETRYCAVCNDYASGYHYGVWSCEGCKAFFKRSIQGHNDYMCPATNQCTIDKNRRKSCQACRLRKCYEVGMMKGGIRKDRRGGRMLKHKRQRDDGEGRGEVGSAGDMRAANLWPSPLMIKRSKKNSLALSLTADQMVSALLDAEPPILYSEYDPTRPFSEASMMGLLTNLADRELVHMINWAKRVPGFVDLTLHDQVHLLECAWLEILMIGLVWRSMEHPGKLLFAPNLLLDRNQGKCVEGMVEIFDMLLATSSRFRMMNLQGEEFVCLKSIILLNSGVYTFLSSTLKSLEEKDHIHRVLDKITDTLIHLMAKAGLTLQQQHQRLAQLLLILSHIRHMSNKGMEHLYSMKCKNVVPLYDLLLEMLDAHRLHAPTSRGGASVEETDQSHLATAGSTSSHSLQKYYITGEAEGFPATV
Description: ERα transactivation bioassay in recombinant CHO cells (rat oxytocin promoter, luciferase reporter). The class given is cell-based. The conditions noted are these: ratio of the activities of the eutomer and the distomer on ERα. Here is the method:
(§1) The estrogenic and antiestrogenic activity of compounds was determined in an in vitro bioassay with recombinant Chinese hamster ovary (CHO) cells stably co-transfected with the human estrogen receptor α (hERα) or β receptor (hERβ), the rat oxytocin promoter (RO) and the luciferase reporter gene (LUC). The estrogenic activity of a test compound to stimulate the transactivation of the enzyme luciferase mediated via the estrogen receptors hERα or hERβ is expressed in nM. The assay was performed as described by De Gooyer et al., Steroids 68 (2003), 21-30. Table 7. ERβ and ERα transactivation data

A short description of data set [2]: metabolic stability in human hepatocytes. The class given is in vitro ADME. Conditions: cryopreserved human hepatocytes in suspension, tetrahydronaphthalen-2-ol, 37°C, sampled 0-120 min, LC-MS/MS, read-out: Human hepatocyte T1/2. As to the method: A number of compounds 9, 11 and 12 were tested on metabolic stability in human hepatocytes. The hepatic stability was compared to corresponding chroman compounds 25, 26 or 27 (see structures below).
Test compounds were diluted to 3 µM in incubation medium. Then 40 µl of the 3 µM test compounds was pipetted into a 96 well microtiter plate (flat bottom). Hepatocytes (stored at -140 °C) were thawed in a 37°C water bath. The cells were resuspended into pre-warmed thawing medium and were centrifuged for 5 minutes at 50g at room temperature. The supernatant was discarded and the remaining cell pellet was resuspended in warm incubation medium and diluted to 7.5 E5 cells/ml. Then 80 µl of the cell suspension was added to each well of the 96 well microtiter plate containing the test compounds. The resulting mixture was incubated at 37°C and was sampled at t=0, 5, 30, 60, and 120 min. The samples were analyzed by LC-MS/MS to determine the content of unchanged test compound. Based on the rate of reduction of the content of test compound over time, the half-live (T1/2) was calculated. Metabolic stability in human hepatocytes

The target of data set [3] is human estrogen receptor β receptor (hERβ) (Homo sapiens, UniProt Q92731). The experiment in a line: ERβ transactivation bioassay in recombinant CHO cells (rat oxytocin promoter, luciferase reporter). It is filed as cell-based. The conditions noted are these: for ERβ/ERα ratio: ERβ agonistic selectivity over ERα, transactivation data; for ERβ eudismic ratio: ratio of the activities of the eutomer and the distomer on ERβ; for EC50: transactivation of luciferase via hERβ in CHO cells, read-out: ERβ agonistic EC50. As to the method: as §1

Data set [4] has as its system acinar epithelium of the ventral prostate. Description: short-term prostate apoptosis and proliferation model in castrated rats. It is filed as in vivo, Wistar rats. Here is the method:
Selected compounds were tested in a short-term prostate apoptosis and proliferation model in castrated rats.
Intact mature male Wistar rats (350-400 g) were castrated and left to recover for 1 week. 7 days after the castration rats received a single subcutaneous injection of testosterone buciclate (TB), a long-acting testosterone ester, in arachis oil (20 mg/kg) with a volume of 1 ml/kg and were subsequently treated once daily orally for 3 days with the test substance at doses between 0 and 1000 µg/kg, dissolved in gelatin/mannitol and dosed with a volume of 1 ml/kg.
At the end of the experiment rats were euthanized, the prostates were removed, weighed and processed for histology.
Apoptosis of the acinar epithelium of the ventral prostate was determined with TUNEL ([…]) staining. Apoptotic cells show nuclear DNA fragmentation and the TUNEL assay end-labels the fragmented DNA by incorporating biotinylated dUTP at the 3'-OH DNA ends using the enzyme Terminal deoxynucleotidyl Transferase (TdT). Positively stained cells are counted per acinus (glandular unit) in the ventral prostate. Proliferation of the acinar epithelium of the ventral prostate was determined by immunohistochemical staining with an antibody directed against Ki67 (clone Mib5). Positively stained cells are counted per acinus (glandular unit) in the ventral prostate. Statistical significance is determined as compared to TB alone by one-way ANOVA.

human estrogen receptor β receptor (hERβ), sequence (Q92731 whole entry): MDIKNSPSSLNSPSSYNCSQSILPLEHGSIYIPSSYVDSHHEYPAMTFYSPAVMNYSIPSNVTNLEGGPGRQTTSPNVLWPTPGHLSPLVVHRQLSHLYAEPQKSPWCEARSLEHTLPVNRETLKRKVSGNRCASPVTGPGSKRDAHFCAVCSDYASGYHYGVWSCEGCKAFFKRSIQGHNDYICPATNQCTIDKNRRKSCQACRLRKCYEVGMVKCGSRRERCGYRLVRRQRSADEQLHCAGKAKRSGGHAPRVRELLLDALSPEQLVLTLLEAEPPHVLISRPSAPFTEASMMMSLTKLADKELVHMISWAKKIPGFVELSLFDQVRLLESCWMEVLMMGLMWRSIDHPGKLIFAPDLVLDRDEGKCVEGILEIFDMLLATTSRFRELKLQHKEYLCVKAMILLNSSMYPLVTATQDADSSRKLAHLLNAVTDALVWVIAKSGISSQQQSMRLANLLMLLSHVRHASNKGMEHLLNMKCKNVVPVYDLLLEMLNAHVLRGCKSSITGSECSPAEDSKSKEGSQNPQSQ

Take `C[C@H]1[C@@H](c2ccc(O)cc2)Cc2ccc(O)cc2[C@H]1Cc1ccccc1F` (single isomer, unassigned) [Compound 11a]: in data set [1], the ERα eudismic ratio is reported as greater than 1.4. The half-life at 1 µM in data set [2] amounted to 40.5 min. Moreover, in data set [3], the ERβ/ERα ratio came out at 189, the ERβ eudismic ratio is reported as greater than 263 and the EC50 was 0.38 nM. For the same molecule, the epithelial cell proliferation result in data set [4] (Ki67 staining, ventral prostate, at 3 µg/kg orally, compared to TB-alone treated rats) was “decrease”. Besides, the epithelial cell apoptosis entry in data set [4] (TUNEL staining, ventral prostate, castrated rats given TB, treated once daily orally for 3 days, compared to TB alone) is given as “statistically significant (p<0.01) increase”. The “minimal active dose (MAD)” value in data set [4] (increase in epithelial cell apoptosis, once daily orally for 3 days) worked out at 3 µg/kg.

On to `CC[C@H]1[C@@H](c2ccc(O)cc2)Cc2ccc(O)cc2[C@H]1Cc1ccccc1F` (single isomer, unassigned) [Compound 11b], for which the ERα eudismic ratio in data set [1] was found to be 0.9. In addition, the half-life at 1 µM in data set [2] was 40.7 min. Moreover, in data set [3], the ERβ/ERα ratio came to 167, the ERβ eudismic ratio is recorded as 93 and the EC50 was determined as 0.15 nM.

`C[C@H]1[C@@H](c2ccc(O)cc2)Cc2ccc(O)cc2[C@H]1Cc1cccc(F)c1` (single isomer, unassigned) [Compound 11f]: the ERα eudismic ratio in data set [1] is greater than 4. In data set [3], the ERβ/ERα ratio is given as 21, the ERβ eudismic ratio is given as 13 and the EC50 worked out at 1.2 nM.

On to `C[C@H]1[C@@H](c2ccc(O)cc2)Cc2ccc(O)cc2[C@H]1Cc1ccc(F)cc1` (single isomer, unassigned) [Compound 11g], for which, in data set [1], the ERα eudismic ratio is greater than 4. Also, in data set [3], the ERβ/ERα ratio is 19, the ERβ eudismic ratio stood at 9 and the EC50 was 1.4 nM.

For `CC[C@H]1[C@@H](c2ccc(O)c(F)c2)Cc2ccc(O)cc2[C@H]1Cc1ccccc1F` (single isomer, unassigned) [Compound 11q], in data set [1], the ERα eudismic ratio was less than 0.3. In data set [2], the half-life at 1 µM was found to be 82.2 min. Also, in data set [3], the ERβ/ERα ratio is greater than 169, the ERβ eudismic ratio is recorded as 7 and the EC50 came out at 0.59 nM.

With `CC[C@H]1[C@@H](c2ccc(O)cc2)Cc2ccc(O)cc2[C@H]1Cc1ccc(F)cc1` (single isomer, unassigned) [Compound 11w], the ERα eudismic ratio in data set [1] is reported as 0.4. Besides, in data set [3], the ERβ/ERα ratio turned out to be 61, the ERβ eudismic ratio stood at 42 and the half-maximal effective concentration (EC50) was found to be 0.36 nM.

The values above are taken from EP2406206B1, “TETRAHYDRONAPHTHALEN-2-OL DERIVATIVES” (MSD Oss B.V., priority 2009, dated 2010).
